The values that follow come from patent US20250018019A1, “TREATMENT OF INTERFERON DRIVEN INFLAMMATION” (The Provost, Fellows, Foundation Scholars and the other …, priority 2023, published 2025).

Where a name gives a salt, the structure may show the parent alone.

One assay has as its system human PBMCs. The experiment in a line: ELISA of IFN-β release from human PBMCs. The assay is classed as cell-based. The note with it: human PBMCs pre-treated, LPS 4 h. How it is done: Human blood samples from healthy donors were collected and processed at the School of Biochemistry and Immunology in TBSI (TCD). Blood samples were obtained anonymously and written informed consent for the use of blood for research purposes has been obtained from the donors. All the procedures involving experiments on human samples have been approved by the School of Biochemistry and Immunology Research Ethics Committee (TCD). Experiments were conducted according to the TCD guide on good research practice, which follows the guidelines detailed in the National Institutes of Health Belmont Report (1978) and the Declaration of Helsinki. […] The remaining pellet of mononuclear cells was resuspended, counted, and plated at 1×10^6 cells/ml in RPMI supplemented with FCS (10%) and penicillin/streptomycin (1%). […]
DuoSet ELISA kits for IL-1β, TNFα, IL-6, IL-10, and GDF15 were purchased from R&D Systems and were carried out according to the manufacturer's instructions with appropriately diluted cell supernatants added to each plate in duplicate or triplicate. IFN-β was determined using DuoSet ELISA kit from R&D Systems or Abcam (ab252363). […] Absorbance at 450 nm was quantified using a FLUOstar Optima plate reader. […]

For assay [1], the system named is BMDMs. Kind of assay: Flow cytometry, CellROX and TMRM staining. The note with it: LPS 4 h; for mitochondrial membrane potential (MMP), TMRM staining: BMDMs pre-treated, oligomycin 10 μM, CCCP 50 μM, valinomycin 10 nM, MMF 50 or 100 μM. The assay is classed as cell-based, mouse. How it is done: (§1) All compounds used DMSO as a vehicle except for 4-hydroxy tamoxifen (EtOH), NAC (PBS), and AOAA for tracing experiments (Media). LPS was used at a concentration of 100 ng/ml for indicated timepoints (2, 3, 4, 6, 8, 24, 48 h). FHIN1 (10 or 20 μM), MMF (50 or 100 μM), DMF (25 μM), AOAA (5 mM), oligomycin (10 μM), CCCP (50 μM) NAC (1 mM), and IMT1 (10 μM) pre-treatments were performed for 3 h prior the addition of LPS. Cells were treated with valinomycin (10 nM) 15 mins before LPS stimulation. Anti-CD210 or IgG control (10 μg/ml) antibodies were added to cells 1 h prior to LPS stimulation. Recombinant mouse IL-10 protein (100 ng/ml) was added to cells at the same time as LPS. Cells were treated with IFN-B1 (220 ng/ml) for 3 h. Cells were treated with C-178 (1 μM) 1 h prior to LPS stimulation or transfection with 2′3′-cGAMP (1.5 μg/ml) for 4 hrs to achieve cGAS-STING activation. Cells were treated with ODN 2088 (1 μM) for 1 hr prior to LPS stimulation or transfection with CPG ODN 1826 (1.5 μg/ml) to achieve TLR9 activation. 3 different timepoints of 4-hydroxy tamoxifen (TAM) (600 nM or 2 μM) or EtOH treatment were performed-these are specified in the individual figure legends. For ‘48 h’ treatments EtOH/TAM was added on day 5 of 6 during the BMDM differentiation protocol. On day 6 they were plated with EtOH/TAM (left overnight) and treated the following day. For ‘72 h’ treatments EtOH/TAM was added on day […] of 6 during the BMDM differentiation protocol. On day 6 they were plated with EtOH/TAM (left overnight) and treated the following day. For ‘96 h’ treatments EtOH/TAM was added on day […] of 6 during the BMDM differentiation protocol. On day 6 they were plated with EtOH/TAM and treated 2 days later.
Cells were plated in 12-well plates and treated as desired. CellROX Green (5 μM, Thermo Fisher) or TMRM (20 nM, Thermo Fisher) was added to cells 30 mins prior to end of cell treatments. Cells were washed once in PBS and scraped into 200 μl FACS buffer (2 mM EDTA, 0.5% FCS in PBS). Acquisition of samples was performed on a BD Accuri C6 flow cytometer. The gating strategy used for all flow cytometry experiments consisted of debris exclusion by FSC-A vs SSC-A analysis and subsequent doublet exclusion by FSC-A vs FSC-H analysis. A sample gating strategy is provided in Supplementary FIG. 2. 10,000 cells was acquired per condition. Mean fluorescence intensity (MFI) was calculated for all cells in each condition using FlowJo v10.

Assay [2] relates to BMDMs. The experiment in a line: Western blotting of signalling proteins in BMDMs. The assay is classed as cell-based, mouse. The settings on record: for IFN-β-induced STAT1 and JAK1 phosphorylation / upstream kinases (AKT, JNK, ERK and p38), total and phospho levels: BMDMs pre-treated with DMSO, FHIN1 or DMF. How it is done:
as §1
Supernatant was removed from cells following stimulation and lysates were harvested in 30-50 μl lysis buffer (0.125 M Tris pH 6.8, 10% glycerol, 0.02% SDS, 5% DTT) Lysates were subsequently heated to 95° C. for 5 mins to denature proteins. SDS-PAGE was used to resolve proteins by molecular weight. Samples were boiled at 95° C. for 5 mins prior to loading into a 5% stacking gel. The percentage resolving gel depended on the molecular weight of the given protein. The Bio-Rad gel running system was used to resolve proteins and the Bio-Rad wet transfer system was used for the electrophoretic transfer of proteins onto PVDF membrane. Following transfer, the membrane was incubated in milk powder (5% in TBST) for 1 hr and subsequently incubated in primary antibody rolling overnight at 4° C. Primary antibodies targeting phospho-proteins were diluted in BSA (5% in TBST) as opposed to milk. The membrane was incubated for 1 hr with secondary antibody (diluted in 5% milk powder) at room temperature. Prior to visualisation, the membrane was immersed in WesternBright ECL Spray (Advansta). Protein visualisation took place on a ChemiDoc MPTM Imaging System (Bio-Rad), and both chemiluminescent and white light images were taken. Images were analysed using Image Lab 6.0.1 (Bio-Rad).
(A western blot detects proteins with antibodies after separation by electrophoresis.)

For the compound `COC(=O)/C=C/C(=O)OC` [DMF, dimethyl fumarate], the “LPS-induced IFN-β release” value in the assay with human PBMCs is listed as “suppressed”. In addition, the “mitochondrial membrane potential (MMP), TMRM staining” value in the assay on BMDMs [1] is given as “no effect”. Also, the “LPS-induced p65 phosphorylation” value with BMDMs [2] (BMDMs pre-treated) is “modestly augment”. In addition, in the assay with BMDMs [2], the “IFN-β-induced STAT1 and JAK1 phosphorylation” value is listed as “limited”; the “upstream kinases (AKT, JNK, ERK and p38), total and phospho levels” value is given as “did not observe changes”.
Turning to `CCOC(=O)[C@@]12CCCC=C1N(Cc1ccc(-c3ccccc3)cc1)C(=O)[C@H]2CC(=O)NC` [FHIN1, Fumarate hydratase-IN-1], the “LPS-induced IFN-β release” value in the assay with human PBMCs is reported as “boosted”. In addition, in the assay on BMDMs [1] (BMDMs pre-treated 3 h), the “reactive oxygen species (ROS) production (CellROX MFI)” value is listed as “increased”. Also, the “mitochondrial membrane potential (MMP), TMRM staining” value with BMDMs [1] is reported as “significantly increased staining”. In the assay with BMDMs [2] (BMDMs pre-treated), the “LPS-induced IL-1β expression (IL-1β levels)” value was “not increased” and the “LPS-induced p65 phosphorylation” value was “modestly augment”. For the same compound, in the assay on BMDMs [2], the “IFN-β-induced STAT1 and JAK1 phosphorylation” value is given as “limited”; the “upstream kinases (AKT, JNK, ERK and p38), total and phospho levels” value is “did not observe changes”. For the same compound, in the assay with BMDMs [2] (BMDMs pre-treated, LPS 4 h), the “LPS-induced TRAF3 levels” value is on record as “not increased” and the TBK1 phosphorylation result was “increased”. For the same compound, in the assay on BMDMs [2] (BMDMs pre-treated, co-treated with recombinant IL-10 100 ng/ml, LPS 4 h), the STAT3 phosphorylation result is listed as “failed to impair”.
